Measurements published in patent publication US20260008760A1, “DIPEPTIDYL PEPTIDASE 1 INHIBITORS AND USES THEREOF” (Insmed Incorporated, priority 2024, published 2026).

Legend:
DPP1 in HL-60 cells = DPP1 in HL-60 cells (Homo sapiens, UniProt P53634); assay: DPP1 Cell IC50 assay; format: cell-based; parameters: host or cells: HL-60 cells; conditions: 60 min pre-incubation, H-Gly-Phe-AFC substrate, average of n runs, read-out: Avg. IC50 (DPP1 Cell IC50 value ranges)
Method: Example 99. DPP1 Cell IC50 assay
HL-60 cells (ATCC; Manassas, VA) were maintained in RPMI-1640 supplemented with 20% heat-inactivated FBS and 1× Antibiotic Antimycotic (Cytiva; Marlborough, MA). Media was changed every three to four days and cells were not allowed to exceed 1×10^6 cells per mL. Prior to assay, cells were collected by centrifugation at 500 rcf for 3 minutes, resuspended in PBS and counted. Cells were diluted in PBS to a concentration of 5×10^5 live cells per mL and transferred to black 96-well plates for assay, 60 μL per well. Test articles were diluted in PBS plus 0.5% DMSO, and 20 μL was added to each assay well. Compound was allowed to pre-incubate with cells with gentle shaking at 100 rpm for 60 minutes at 37° C. in a cell culture incubator maintained at 5% CO2, after which 20 μL of 500 μM H-Gly-Phe-AFC substrate (MP Biomedicals; Solon, OH) was added to each well. Plates were returned to the incubator with shaking at 100 rpm for 30 minutes, after which fluorescence was measured at Excitation/Emission 400/505 nm. % Inhibition was calculated from RFU values compared to control cell wells that received only PBS plus 0.5% DMSO. IC50 values for each compound were calculated via the XLFit (IDBS Version 5.3.1.3) Add-On to Microsoft Excel using the four parameter fit equation y=(A+((B−A)/(1+((C/x)^D)))), which appears as equation number 205 (4 Parameter Logistic Model or Sigmoidal Dose-Response Model) in XLFit. IC50 was defined as the compound concentration at which 50% of enzyme activity was inhibited when compared to the no-compound control.

human DPP1 enzyme = human DPP1 enzyme (Homo sapiens, UniProt P53634); assay: Human DPP1 Enzyme IC50 Assay; format: biochemical; parameters: was first proteolytically processed into its mature form using recombinant human cathepsin L; purchased R&D Systems; conditions: activated recombinant human DPP1, 400 μM H-Gly-Arg-AMC, 10 minutes pre-incubation at 37° C., pH 6.0; average of n runs; read-out: Avg. IC50 (Human DPP1 enzyme IC50 value ranges)
Method: Example 97. Human DPP1 Enzyme IC50 Assay
Recombinant human DPP1 enzyme (R&D Systems; Minneapolis, MN) was first proteolytically processed into its mature form using recombinant human cathepsin L (R&D Systems) in a buffer consisting of 20 mM citric acid pH 4.5, 150 mM NaCl, 1 mM EDTA and 10 mM DTT. Test articles were applied to activated human DPP1 enzyme in Assay Buffer (25 mM MES pH 6.0, 50 mM NaCl, 5 mM DTT) in a total reaction volume of 125 μL. 25 μL of compound in Assay Buffer plus 5% DMSO was first added to 50 μL of activated human DPP1 enzyme at a concentration of 1 ng/μL and allowed to pre-incubate for 10 minutes at 37° C. after which 50 μL of 1000 μM H-Gly-Arg-AMC substrate (Bachem; St. Torrance, CA) was added, giving final substrate concentration of 400 μM and a final DMSO concentration of 1%. Substrate cleavage was measured for 90 minutes at 37° C., with fluorescence at Excitation/Emission 350/450 nm measured every 5 minutes. DPP1 concentration was interpolated based on its activity relative to a standard curve of activated human recombinant DPP1 enzyme. IC50 values for each compound were calculated via the XLFit (IDBS Version 5.3.1.3) Add-On to Microsoft Excel using the four parameter fit equation y={A+[(B−A)]/[1+((C/x)^D)]}, which appears as equation number 205 (4 Parameter Logistic Model or Sigmoidal Dose-Response Model) in XLFit. Default constraints were used for each Parameter. IC50 was defined as the compound concentration at which 50% of enzyme activity was inhibited when compared to the no-compound control.

DPP1 in HL-60 cells, sequence (P53634 25-463): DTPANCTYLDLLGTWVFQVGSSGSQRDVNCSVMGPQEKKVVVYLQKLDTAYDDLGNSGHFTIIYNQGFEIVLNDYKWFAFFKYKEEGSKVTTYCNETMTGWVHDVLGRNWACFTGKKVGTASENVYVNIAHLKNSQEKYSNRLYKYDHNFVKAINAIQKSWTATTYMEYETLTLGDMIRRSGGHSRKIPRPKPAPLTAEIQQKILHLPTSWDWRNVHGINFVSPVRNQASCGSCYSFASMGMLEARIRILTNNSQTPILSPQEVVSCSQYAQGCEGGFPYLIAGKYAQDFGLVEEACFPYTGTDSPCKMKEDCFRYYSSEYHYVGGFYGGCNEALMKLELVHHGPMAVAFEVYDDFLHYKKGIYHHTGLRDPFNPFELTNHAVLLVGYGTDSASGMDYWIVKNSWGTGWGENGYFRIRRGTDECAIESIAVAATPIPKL
human DPP1 enzyme, sequence (P53634 25-134 limits assumed): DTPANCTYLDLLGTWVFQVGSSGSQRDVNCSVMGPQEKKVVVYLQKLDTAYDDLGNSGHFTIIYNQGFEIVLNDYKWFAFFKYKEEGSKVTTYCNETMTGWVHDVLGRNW
human DPP1 enzyme, sequence (P53634 231-394 limits assumed): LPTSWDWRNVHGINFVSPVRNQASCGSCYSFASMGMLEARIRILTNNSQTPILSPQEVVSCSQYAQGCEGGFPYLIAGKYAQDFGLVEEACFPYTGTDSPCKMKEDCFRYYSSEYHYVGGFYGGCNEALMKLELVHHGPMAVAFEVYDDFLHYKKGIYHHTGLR
human DPP1 enzyme, sequence (P53634 395-463 limits assumed): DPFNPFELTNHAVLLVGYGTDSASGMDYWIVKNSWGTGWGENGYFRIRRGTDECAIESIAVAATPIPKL

Row | Compound | IC50 (DPP1 in HL-60 cells) | IC50 (human DPP1 enzyme)
1 | CO[C@@H]1CCNC[C@@H](C(=O)N[C@H](C#N)Cc2ccc(-c3ccc4cnn(C)c4c3)cc2F)OC1 [Compound H7, (2S,7R)—N-[(1S)-1-cyano-2-[2-fluoro-4-(1-methylindazol-6-yl)phenyl]ethyl]-7-methoxy-1,4-oxazocane-2-carboxamide] | < 1 nM | < 5 nM
2 | CO[C@@H]1CNC[C@@H](C(=O)N[C@H](C#N)Cc2ccc(-c3cc4c(C)nc(C)cn4c3)cc2F)OC1 [Compound A88-A] | > 2.5 nM | > 15 nM
3 | N#C[C@H](Cc1ccc(-c2ccc3c(c2)CCS3)cc1)NC(=O)[C@@H]1CNCCCO1 [Compound A4, (2S)—N-[(1S)-1-cyano-2-[4-(2,3-dihydro-1-benzothiophen-5-yl)phenyl]ethyl]-1,4-oxazepane-2-carboxamide] | > 2.5 nM | > 15 nM
4 | Cn1c(=O)oc2ccc3c(c21)COc1cc(CC(C#N)NC(=O)[C@@H]2CNCCCO2)c(F)cc1-3 (mixture of isomers) [Compound C2, (2S)—N-(1-cyano-2-(8-fluoro-3-methyl-2-oxo-3,4-dihydro-2H-benzo[3,4]isochromeno[8,7-d]oxazol-7-yl)ethyl)-1,4-oxazepane-2-carboxamide] | > 2.5 nM | > 15 nM
5 | N#C[C@H](Cc1ccc(-c2nc3c(s2)CS(=O)(=O)CC3)cc1)NC(=O)[C@@H]1CNCCCO1 [Compound A6] | > 2.5 nM | > 15 nM
6 | Cn1c(=O)oc2ccc3c(c21)COc1cc(C[C@@H](C#N)NC(=O)[C@@H]2CNCCCO2)c(F)cc1-3 [Compound C2-A] | 1 to 2.5 nM | > 15 nM
7 | N#C[C@@H](Cc1cc2c(cc1F)-c1cc(C3COC3)c(F)cc1CO2)NC(=O)[C@@H]1CNCCCCO1 [Compound B10-A] | > 2.5 nM | > 15 nM
8 | COC1CNC[C@@H](C(=O)N[C@H](C#N)Cc2ccc(-c3ccc4c(c3)CCC(=O)N4C)cc2F)OC1 (stereo partly shown) [Compound A152] | < 1 nM | < 5 nM
9 | Cc1c(C(N)=O)sc2ncc(-c3ccc(C[C@@H](C#N)NC(=O)[C@@H]4CNCCCO4)cc3)cc12 [Compound A19, (2S)—N-[(1S)-2-(4-{2-carbamoyl-3-methylthieno[2,3-b]pyridin-5-yl}phenyl)-1-cyanoethyl]-1,4-oxazepane-2-carboxamide] | > 2.5 nM | > 15 nM
10 | CO[C@@H]1CCNC[C@@H](C(=O)N[C@H](C#N)Cc2ccc(-c3cc4c(C)nc(C)cn4c3)c(F)c2)OC1 [Compound A35, (2S,7R)—N-[(1S)-1-cyano-2-(4-{1,3-dimethylpyrrolo[1,2-a]pyrazin-7-yl}-3-fluorophenyl)ethyl]-7-methoxy-1,4-oxazocane-2-carboxamide] | 1 to 2.5 nM | 5 to 15 nM
11 | CO[C@H]1CNC[C@@H](C(=O)N[C@H](C#N)Cc2ccc(-c3cc4c(C)nc(C)cn4c3)cc2F)OC1 [Compound A88-B] | < 1 nM | < 5 nM
12 | Cn1c(=O)oc2cc3c(cc21)-c1cc(F)c(CC(C#N)NC(=O)[C@@H]2CNCCCO2)cc1OC3 (stereo partly drawn) [Compound C1, (2S)—N-(1-cyano-2-{4-fluoro-15-methyl-14-oxo-8,13-dioxa-15-azatetracyclo[8.7.0.0^{2,7}0.0^{12,16}]heptadeca-1(10),2(7),3,5,11,16-hexaen-5-yl}ethyl)-1,4-oxazepane-2-carboxamide] | > 2.5 nM | < 5 nM
13 | Cn1nc(F)c2ccc(-c3ccc(C[C@@H](C#N)NC(=O)[C@@H]4CNCC[C@@H](F)CO4)cc3)cc21 [Compound A161] | > 2.5 nM | > 15 nM
14 | Cc1nc(C)c2cc(-c3ccc(C[C@@H](C#N)NC(=O)[C@@H]4CNCCCO4)cc3)cn2c1C [Compound A60] | > 2.5 nM | > 15 nM
15 | Cc1cn2c3c(cc2c(C)n1)-c1cc(F)c(C[C@@H](C#N)NC(=O)[C@@H]2CNCCCO2)cc1OC3 [Compound C10] | 1 to 2.5 nM | > 15 nM
16 | CN1C(=O)C2(CCN(C3CCOCC3)CC2)c2cc(-c3ccc(C[C@@H](C#N)NC(=O)[C@@H]4CNCCCO4)cc3)ccc21 [Compound 35] | > 2.5 nM | > 15 nM
17 | CO[C@@H]1CCNC[C@@H](C(=O)N[C@H](C#N)Cc2cc3c(cc2F)-c2cc(C4COC4)c(F)cc2CO3)OC1 [Compound B12, (2S,7R)—N-{1-cyano-2-[2,8-difluoro-9-(oxetan-3-yl)-6H-benzo[c]chromen-3-yl]ethyl}-7-methoxy-1,4-oxazocane-2-carboxamide] | 1 to 2.5 nM | < 5 nM
18 | COc1ccc(-c2ccc(C[C@@H](C#N)NC(=O)[C@@H]3CNCCCO3)cc2)cc1-n1cnnc1 [Compound 31, (2S)—N-[(1S)-1-cyano-2-[4′-methoxy-3′-(1,2,4-triazol-4-yl)-[1,1′-biphenyl]-4-yl]ethyl]-1,4-oxazepane-2-carboxamide] | > 2.5 nM | > 15 nM
19 | Cn1c(=O)oc2cc3c(cc21)-c1cc(F)c(C[C@@H](C#N)NC(=O)[C@@H]2CNCCCO2)cc1OC3 [Compound C1-B] | 1 to 2.5 nM | < 5 nM
20 | N#C[C@H](Cc1ccc(-c2ccc3c(c2)C2(CCN(C4CC4)CC2)SCC3)cc1)NC(=O)[C@@H]1CNCCCO1 [Compound I7] | > 2.5 nM | > 15 nM
21 | CO[C@@H]1CCNC[C@@H](C(=O)N[C@H](C#N)Cc2ccc(-c3cc4c(C)nc(C)cn4c3)cc2)OC1 [Compound A32, (2S,7R)—N-[(1S)-1-cyano-2-(4-{1,3-dimethylpyrrolo[1,2-a]pyrazin-7-yl}phenyl)ethyl]-7-methoxy-1,4-oxazocane-2-carboxamide] | 1 to 2.5 nM | > 15 nM
22 | CO[C@@H]1CCNC[C@@H](C(=O)N[C@H](C#N)Cc2ccc(-c3ccc4c(c3)CCC(=O)N4C)cc2F)OC1 [Compound A151] | 1 to 2.5 nM | < 5 nM
23 | N#C[C@H](Cc1ccc(-c2cc3c(F)nccn3c2)cc1)NC(=O)[C@@H]1CNCCCO1 [Compound A66] | > 2.5 nM | > 15 nM
24 | Cn1c(=O)ccc2ncc(-c3ccc(C[C@@H](C#N)NC(=O)[C@@H]4CNCCCO4)cc3)cc21 [Compound A18, (2S)—N-[(1S)-1-cyano-2-[4-(5-methyl-6-oxo-1,5-naphthyridin-3-yl)phenyl]ethyl]-1,4-oxazepane-2-carboxamide] | > 2.5 nM | > 15 nM
25 | CO[C@@H]1CCNC[C@@H](C(=O)N[C@H](C#N)Cc2cc3cc(-c4cc5c(C)nc(C)cn5c4)ccc3s2)OC1 (single isomer, unassigned) [Compound A51] | 1 to 2.5 nM | 5 to 15 nM
26 | N#C[C@H](Cc1ccc(-c2ccc3c(c2)[C@@]2(CCCN(C4CC4)C2)COC3)cc1)NC(=O)[C@@H]1CNCCCO1 [Compound I12] | > 2.5 nM | 5 to 15 nM
27 | COC1CNC[C@@H](C(=O)N[C@H](C#N)Cc2ccc(-c3ccc4c(F)nn(C)c4c3)cc2)OC1 (stereo partly shown) [Compound A158] | < 1 nM | < 5 nM
28 | CO[C@H]1CCO[C@H](C(=O)N[C@H](C#N)Cc2ccc(-c3cc4c(C)nc(C)cn4c3)s2)CNC1 [Compound A44, (2S,6S)—N-[(1S)-1-cyano-2-(5-{1,3-dimethylpyrrolo[1,2-a]pyrazin-7-yl}thiophen-2-yl)ethyl]-6-methoxy-1,4-oxazocane-2-carboxamide] | > 2.5 nM | > 15 nM
29 | CN1CCC2(CC1)C(=O)Nc1ccc(-c3ccc(C[C@@H](C#N)NC(=O)[C@@H]4CNCCCO4)cc3)cc12 [Compound 13, (2S)—N-[(1S)-1-cyano-2-(4-{1′-methyl-2-oxo-1H-spiro[indole-3,4′-piperidin]-5-yl}phenyl)ethyl]-1,4-oxazepane-2-carboxamide] | > 2.5 nM | > 15 nM
